Type in all cases: cell-based
Test [1] has as its target T1, wild-type Androgen Receptor (AR-wt) (Homo sapiens, UniProt P10275).
T1 construct: expressed in transfected cells; host or cells: LNCaP (LNCaP AR (cs))
T1 sequence (P10275 1-920): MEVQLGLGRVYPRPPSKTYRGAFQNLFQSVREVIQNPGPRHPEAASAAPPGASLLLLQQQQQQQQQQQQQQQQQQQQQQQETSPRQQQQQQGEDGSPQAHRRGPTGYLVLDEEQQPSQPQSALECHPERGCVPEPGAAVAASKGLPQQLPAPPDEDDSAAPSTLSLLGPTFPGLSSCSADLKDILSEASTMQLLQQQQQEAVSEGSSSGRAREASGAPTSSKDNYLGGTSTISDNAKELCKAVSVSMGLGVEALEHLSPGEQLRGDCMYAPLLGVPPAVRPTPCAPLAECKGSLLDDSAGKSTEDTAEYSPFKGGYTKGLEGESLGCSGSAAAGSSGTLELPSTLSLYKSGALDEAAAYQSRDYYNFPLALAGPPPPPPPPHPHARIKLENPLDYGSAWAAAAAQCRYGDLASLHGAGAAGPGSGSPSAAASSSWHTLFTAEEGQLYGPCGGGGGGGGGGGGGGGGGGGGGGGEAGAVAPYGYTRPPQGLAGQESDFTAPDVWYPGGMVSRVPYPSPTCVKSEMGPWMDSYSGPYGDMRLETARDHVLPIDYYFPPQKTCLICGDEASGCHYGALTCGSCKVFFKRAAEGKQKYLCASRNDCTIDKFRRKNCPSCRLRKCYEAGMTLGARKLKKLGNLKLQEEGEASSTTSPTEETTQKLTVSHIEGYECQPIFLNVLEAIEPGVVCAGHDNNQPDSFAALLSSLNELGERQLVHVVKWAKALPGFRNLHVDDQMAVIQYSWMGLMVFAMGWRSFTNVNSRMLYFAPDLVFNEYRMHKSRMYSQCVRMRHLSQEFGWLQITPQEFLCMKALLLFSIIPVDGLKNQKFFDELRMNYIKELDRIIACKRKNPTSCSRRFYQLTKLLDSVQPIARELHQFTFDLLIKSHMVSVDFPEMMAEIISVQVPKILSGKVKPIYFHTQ
In words: LNCaP-AR-wt ANT reporter assay (ARE firefly luciferase, antagonist mode). The settings on record: for IC50: antagonist mode, 400 pM R-1881 challenge, −Log10(IC50 [Molar]), read-out: LNCaP-AR-wt ANT pIC50 (converted); for Emax: read-out: LNCaP-AR-wt ANT MAX % Inh. Summed up:
(§1)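 LNCaP cells stably expressing wild-type or F876L AR (puromycin-selected pooled populations) were cultured in charcoal-stripped serum medium. In antagonist mode, agonist challenge was 400 pM for wild-type and 600 pM for F876L.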

The target in test [2] is T1, wild-type Androgen Receptor (AR-wt). Description: LNCaP-AR-wt AG reporter assay (ARE firefly luciferase, agonist mode). The conditions noted are these: for EC50: agonist mode, −Log10(EC50 [Molar]), read-out: LNCaP-AR-wt AG pEC50 (converted); for Emax: read-out: LNCaP-AR-wt AG MAX % Stim. Summed up: (§2)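 Cells: stable LNCaP pools, AR-wt or AR-F876L, in charcoal-stripped serum. Agonist challenge for antagonist mode was 400 pM (WT) and 600 pM (F876L). Luminescence was measured after 20-24 h incubation.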
For orientation: A reporter such as luciferase makes a cellular process visible.

For test [3], the target named is T2, F876L mutant Androgen Receptor (AR-F876L) (Homo sapiens, UniProt P10275, F877L).
T2 construct: expressed in transfected cells; host or cells: LNCaP (LNCaP F876L)
T2 sequence (P10275 1-920 F877L): T1 sequence (P10275 1-920) with F877L
In words: LNCaP-AR-F876L ANT reporter assay (ARE firefly luciferase, antagonist mode). The conditions noted are these: for Emax: read-out: LNCaP-AR-F876L ANT MAX % Inh; for IC50: read-out: LNCaP-AR-F876L ANT pIC50 (converted). Summed up: as §1

Test [4] addresses T2, F876L mutant Androgen Receptor (AR-F876L). Description: LNCaP-AR-F876L AG reporter assay (ARE firefly luciferase, agonist mode). The settings on record: for EC50: agonist mode, −Log10(EC50 [Molar]), read-out: LNCaP-AR-F876L AG pEC50 (converted); for Emax: read-out: LNCaP-AR-F876L AG MAX % Stim. Summed up:
as §2

Setting [5] is: maximum % inhibition of R1881 control response over tested concentration range.
The mark [6] stands for this setting: maximum % stimulation (agonist response) over tested concentration range.

Structures are written as SMILES. Residue numbers refer to the chain shown, from its start. pEC50: −log10 of the molar value. Read-outs that look alike come from different tables or passages of the source.

As to `CNC(=O)c1ccc(N2C(=S)N(c3cnc(C#N)c(C)c3)C(=O)C23CCC3)cc1OC` [Cpd 117, 4-[6-(6-cyano-5-methyl-3-pyridyl)-5-oxo-7-thioxo-6,8-diazaspiro[3.4]octan-8-yl]-2-methoxy-N-methyl-benzamide], the IC50 was 1260 nM in test [1] and 288 nM in test [3]. Moreover, the Emax was 100% in test [1] (setting [5]), 0.7% in test [2] (setting [6]), 96.4% in test [3] (setting [5]) and 3.5% in test [4] (setting [6]). Besides, the EC50 in test [2] and in test [4] was over 15100 nM throughout.
With `Cc1cc(N2C(=O)C3(CCC3)N(c3ccc(-c4ccco4)cc3)C2=S)cnc1C#N` [Cpd 86, 5-[8-[4-(2-furyl)phenyl]-5-oxo-7-thioxo-6,8-diazaspiro[3.4]octan-6-yl]-3-methyl-pyridine-2-carbonitrile], the IC50 in test [1] is 257 nM; in test [3] it was 209 nM. The Emax in test [1] (setting [5]) came out at 91.7%; in test [2] (setting [6]), 0.6%; in test [3] (setting [5]) it was 93.3%; in test [4] (setting [6]), 1.3%. In addition, the EC50 in test [2] and in test [4] was over 15100 nM throughout.
Regarding `N#Cc1ncc(N2C(=O)C3(CCC3)N(c3ccc(OC4CCOCC4)cc3)C2=S)cc1C(F)(F)F` [Cpd 112, 5-[5-oxo-8-(4-tetrahydropyran-4-yloxyphenyl)-7-thioxo-6,8-diazaspiro[3.4]octan-6-yl]-3-(trifluoromethyl)pyridine-2-carbonitrile], the IC50 in test [1] was 355 nM; in test [3] it was 331 nM. The Emax is 100% in test [1] (setting [5]), 1.1% in test [2] (setting [6]), 97% in test [3] (setting [5]) and 2.7% in test [4] (setting [6]). Further, the EC50 in test [2] and in test [4] was over 15100 nM throughout.
For the compound `N#Cc1ncc(N2C(=O)C3(CCC3)N(c3ccc(C(N)=O)c(F)c3)C2=S)cc1C(F)(F)F` [Cpd 80, 4-[6-[6-cyano-5-(trifluoromethyl)-3-pyridyl]-5-oxo-7-thioxo-6,8-diazaspiro[3.4]octan-8-yl]-2-fluoro-benzamide], the IC50 in test [1] was 891 nM; in test [3], 427 nM. Besides, the Emax in test [1] (setting [5]) is 100%; in test [2] (setting [6]), 0.4%; in test [3] (setting [5]), 95.4%; in test [4] (setting [6]), 1.2%. The EC50 in test [2] and in test [4] was over 15100 nM in each case.
In the case of `Cc1cc(N2C(=O)C3(CCC3)N(c3ccc(OC4CCN(C)CC4)c(F)c3)C2=S)cnc1C#N` [Cpd 116, 5-[8-[3-fluoro-4-[(1-methyl-4-piperidyl)oxy]phenyl]-5-oxo-7-thioxo-6,8-diazaspiro[3.4]octan-6-yl]-3-methyl-pyridine-2-carbonitrile], the IC50 in test [1] was 2570 nM; in test [3], 631 nM. The Emax in test [1] (setting [5]) worked out at 95.3%; in test [2] (setting [6]), 1.1%; in test [3] (setting [5]) it was 98.6%; in test [4] (setting [6]), 3.5%. The EC50 in test [2] and in test [4] was over 15100 nM throughout.
As to `Cc1ccc(CNC(=O)c2ccc(N3C(=S)N(c4cnc(C#N)c(C(F)(F)F)c4)C(=O)C34CCC4)cc2F)o1` [Cpd 26, 4-[6-[6-cyano-5-(trifluoromethyl)-3-pyridyl]-5-oxo-7-thioxo-6,8-diazaspiro[3.4]octan-8-yl]-2-fluoro-N-[(5-methyl-2-furyl)methyl]benzamide], the values for the IC50 in test [1] and in test [3] were 813 nM and 891 nM, respectively. The Emax turned out to be 97.9% in test [1] (setting [5]), 1.1% in test [2] (setting [6]), 97.9% in test [3] (setting [5]) and 0.3% in test [4] (setting [6]). Also, the EC50 in test [2] and in test [4] was over 15100 nM each time.
With `N#Cc1ncc(N2C(=O)C3(CCC3)N(c3ccc(F)cc3)C2=S)cc1C(F)(F)F` [Cpd 102, 5-[8-(4-fluorophenyl)-5-oxo-7-thioxo-6,8-diazaspiro[3.4]octan-6-yl]-3-(trifluoromethyl)pyridine-2-carbonitrile], the IC50 in test [1] was 646 nM; in test [3], 501 nM. Also, the Emax in test [1] (setting [5]) turned out to be 101%; in test [2] (setting [6]), 0.9%; in test [3] (setting [5]), 99.6%; in test [4] (setting [6]) it was 1.9%. For the same compound, the EC50 in test [2] and in test [4] was over 15100 nM each time.
Broadly, the pEC50 is the negative decadic logarithm of the EC50, by convention in mol/L. As to `N#Cc1ncc(N2C(=O)C3(CCC3)N(c3ccc(C(=O)NCc4ccccn4)c(F)c3)C2=S)cc1C(F)(F)F` [Cpd 44, 4-[6-[6-cyano-5-(trifluoromethyl)-3-pyridyl]-5-oxo-7-thioxo-6,8-diazaspiro[3.4]octan-8-yl]-2-fluoro-N-(2-pyridylmethyl)benzamide], the IC50 in test [1] was 195 nM; in test [3], 178 nM. The Emax in test [1] was 103%; in test [2] it was -0.2%; in test [3] it was 101%; in test [4], 0%. Also, the pEC50 in test [2] and in test [4] was under 4.82 throughout.
On to `N#Cc1ncc(N2C(=O)C3(CCC3)N(c3ccc(C(=O)NCc4ccccc4Cl)c(F)c3)C2=S)cc1C(F)(F)F` [Cpd 31, N-[(2-chlorophenyl)methyl]-4-[6-[6-cyano-5-(trifluoromethyl)-3-pyridyl]-5-oxo-7-thioxo-6,8-diazaspiro[3.4]octan-8-yl]-2-fluoro-benzamide], for which the IC50 in test [1] and in test [3] was 2240 nM in each case. The Emax is 98.6% in test [1], 0.2% in test [2], 91% in test [3] and 0.3% in test [4]. Besides, the pEC50 in test [2] and in test [4] was under 4.82 each time.
For `N#Cc1ncc(N2C(=O)C3(CCC3)N(c3cccc(CO)c3)C2=S)cc1C(F)(F)F` [Cpd 81, 5-[8-[3-(hydroxymethyl)phenyl]-5-oxo-7-thioxo-6,8-diazaspiro[3.4]octan-6-yl]-3-(trifluoromethyl)pyridine-2-carbonitrile], the IC50 in test [1] was 708 nM; in test [3], 776 nM. Also, the Emax was found to be 95.9% in test [1], 0.7% in test [2], 100% in test [3] and 1.2% in test [4]. Further, the pEC50 in test [2] and in test [4] was under 4.82 in each case.

The values are drawn from patent US20180008587A1, “THIOHYDANTOIN ANDROGEN RECEPTOR ANTAGONISTS FOR THE TREATMENT OF CANCER” (Jaressen Pharmaceutica NV, priority 2016, published 2018).
